From patent US20150166528A1, “Pesticidal methods using substituted 3-pyridyl thiazole compounds and derivatives for combating animal pests” (BASF SE, priority 2012, published 2015)

How the values were obtained:
Format in all cases: in vivo
Megoura viciae = test: Vetch aphid (Megoura viciae) leaf disk test, contact or systemic; details: foliar, 120 h, sprayed broad bean leaf disks, adult aphids, 5 days, read-out: mortality in comparison with untreated controls
Procedure: For evaluating control of vetch aphid (Megoura viciae) through contact or systemic means the test unit consisted of 24-well-microtiter plates containing broad bean leaf disks.
The compounds were formulated using a solution containing 75% v/v water and 25% v/v DMSO. Different concentrations of formulated compounds were sprayed onto the leaf disks at 2.5 μl, using a custom built micro atomizer, at two replications.
After application, the leaf disks were air-dried and 5-8 adult aphids were placed on the leaf disks inside the microtiter plate wells. The aphids were then allowed to suck on the treated leaf disks and were incubated at about 23±1° C. and about 50±5% relative humidity for 5 days. Aphid mortality and fecundity were then visually assessed.

Aphis Craccivora = test: Cowpea aphid (Aphis craccivora) potted cowpea plant spray test; details: sprayed potted cowpea plants, population reduction assessed after 24, 72 and 120 hours, read-out: mortality in comparison with untreated controls
Procedure: The active compound was dissolved at the desired concentration in a mixture of 1:1 (vol:vol) distilled water:acetone. The test solution was prepared at the day of use.
Potted cowpea plants colonized with approximately 100-150 aphids of various stages were sprayed after the pest population has been recorded. Population reduction was assessed after 24, 72, and 120 hours.

Myzus persicae = test: Green peach aphid (Myzus persicae) artificial diet test, systemic; details: 72 h, in liquid artificial aphid diet, adult aphids, 3 days, read-out: mortality in comparison with untreated controls
Excerpt: For evaluating control of green peach aphid (Myzus persicae) through systemic means the test unit consisted of 96-well-microtiter plates containing liquid artificial diet under an artificial membrane.
The compounds were formulated using a solution containing 75% v/v water and 25% v/v DMSO. Different concentrations of formulated compounds were pipetted into the aphid diet, using a custom built pipetter, at two replications.
After application, 5-8 adult aphids were placed on the artificial membrane inside the microtiter plate wells. The aphids were then allowed to suck on the treated aphid diet and were incubated at about 23±1° C. and about 50±5% relative humidity for 3 days. Aphid mortality and fecundity was then visually assessed.

Bemisia Argentifolii = test: Silverleaf whitefly (Bemisia argentifolii) cotton plant spray test; details: 72 h, sprayed cotton plants, whitefly adults, 3 days after treatment, read-out: mortality in comparison with untreated controls
Excerpt: The active compounds were formulated in cyclohexanone as a 10,000 ppm solution supplied in tubes. The tubes were inserted into an automated electrostatic sprayer equipped with an atomizing nozzle and they served as stock solutions for which lower dilutions were made in 50% acetone:50% water (v/v). A nonionic surfactant (Kinetic®) was included in the solution at a volume of 0.01% (v/v).
Cotton plants at the cotyledon stage (one plant per pot) were sprayed by an automated electrostatic plant sprayer equipped with an atomizing spray nozzle. The plants were dried in the sprayer fume hood and then removed from the sprayer. Each pot was placed into a plastic cup and about 10 to 12 whitefly adults (approximately 3-5 days old) were introduced. The insects were collected using an aspirator and a nontoxic Tygon® tubing connected to a barrier pipette tip. The tip, containing the collected insects, were gently inserted into the soil containing the treated plant, allowing insects to crawl out of the tip to reach the foliage for feeding. Cups were covered with a reusable screened lid. Test plants were maintained in a growth room at about 25° C. and about 20-40% relative humidity for 3 days, avoiding direct exposure to fluorescent light (24 hour photoperiod) to prevent trapping of heat inside the cup. Mortality was assessed 3 days after treatment, compared to untreated control plants.

Heliothis virescens = test: Tobacco budworm (Heliothis virescens) insect diet egg/larval test; details: 120 h, sprayed onto insect diet with eggs, egg and larval mortality, 5 days, read-out: mortality in comparison with untreated controls
Procedure: For evaluating control of tobacco budworm (Heliothis virescens) the test unit consists of 96-well-microtiter plates containing an insect diet and 15-25 H. virescens eggs.
The compounds were formulated using a solution containing 75% v/v water and 25% v/v DMSO. Different concentrations of formulated compounds were sprayed onto the insect diet at 10 μl, using a custom built micro atomizer, at two replications.
After application, microtiter plates were incubated at about 28±1° C. and about 80±5% relative humidity for 5 days. Egg and larval mortality was then visually assessed.

| Structure (SMILES) | mortality at 800 ppm (Megoura viciae) | mortality at 100 ppm (Aphis Craccivora) | mortality at 800 ppm (Myzus persicae) | mortality at 300 ppm (Bemisia Argentifolii) | mortality at 800 ppm (Heliothis virescens) |
| --- | --- | --- | --- | --- | --- |
| CCN(C1=NCCS1)c1cnc(-c2cccnc2)s1 [C.1, N-(4,5-dihydrothiazol-2-yl)-N-ethyl-2-(3-pyridyl)thiazol-5-amine] | ≥ 75% | ≥ 75% | ≥ 75% | ≥ 75% |  |
| CCN(C1=NCCS1)c1sc(-c2cccnc2)nc1Cl [C.3, 4-chloro-N-(4,5-dihydrothiazol-2-yl)-N-ethyl-2-(3-pyridyl)thiazol-5-amine] | ≥ 75% | ≥ 75% |  |  |  |
| CCN(C1=NCCO1)c1sc(-c2cccnc2)nc1Cl [C.4, N-[4-chloro-2-(3-pyridyl)thiazol-5-yl]-N-ethyl-4,5-dihydrooxazol-2-amine] | ≥ 75% | ≥ 75% | ≥ 75% | ≥ 75% |  |
| [O-][S+](c1ncccn1)c1cnc(-c2cccnc2)s1 (centres unmarked) [C.11, 2-(3-Pyridyl)-5-pyrimidin-2-ylsulfinyl-thiazole] |  |  |  |  | ≥ 75% |
